Measurements taken from article PMC11091889, “Silver Organometallics that are Highly Potent Thioredoxin and Glutathione Reductase Inhibitors: Exploring the Correlations of Solution Chemistry with the Strong Antibacterial Effects” (ACS Infectious Diseases, 2024).
Like-named read-outs stand apart in the source and are kept apart here.

Experiments:
[1] = tested on: S. aureus MRSA (DSM 11822, ICB 25701); experiment: microbe, parasite or virus in culture; type: cell-based, methicillin resistant S. aureus
Experimental: (§1) The antibacterial effect of the silver NHC complexes and selected ligands was evaluated in two Gram-positive [Enterococcus faecium, methicillin resistant S. aureus, (MRSA)] and in four Gram-negative (Acinetobacter baumannii, Escherichia coli, Klebsiella pneumoniae, and Pseudomonas aeruginosa) pathogenic bacterial strains using broth microdilution assays. The resulting minimal inhibitory concentrations (MICs, Table 2) and EC50 (Table S6) were determined by a curve fitting procedure. Silver nitrate (AgNO3), SSD, and various antibiotics were used as references.
The importance of the culture medium used in antibacterial assays has been pointed out for antibiotics and in particular for silver.[53]−[55] In our recent studies, tryptic soy yeast (TSY) broth has been used for growing Gram-positive bacteria. Two components thereof, tryptone and yeast extract, have been reported to affect the antibacterial activity of silver nitrate.[55] Moreover, such an effect was also observed for other media containing at least one of those components.[11],[53] […] Silver nitrate served as a reference, and three different growth media were studied, namely, Müller-Hinton Broth (MHB, commonly used for Gram-negative bacteria), TSY broth (commonly used for Gram-positive bacteria), and DMEM supplemented with 10% FCS (commonly used for growth of mammalian and human cells).
(§2) The following strains of ESKAPE panel were utilized and maintained at 37 °C in MHB (21 g/L Müller Hinton broth, pH 7.4) or TSY (30 g/L trypticase soy broth, 3 g/L yeast extract, pH 7.0–7.2) media: A. baumannii (DSM 30007, ATCC 19606), E. coli (DSM1116, ATCC 9637), K. pneumoniae (DSM 11678, ATCC33495), P. aeruginosa PA7 (DSM 24068) in MHB; E. faecium (DSM 20477, ATCC 19434), and S. aureus MRSA (DSM 11822, ICB 25701) in TSY. MIC values were determined following a standardized protocol in broth microdilution assays. The compounds and reference substances (AgNO3 and SSD) were serially diluted from 64 to 1 μg/mL. Starting inocula of 2–8 × 10^5 CFU/mL in MHB or TSY media at 37 °C were used, and serial dilutions were carried out in 96-well microtiter plates in duplicate. After incubation of the plates for 22 h at 37 °C, the absorbance at 600 nm was measured using The Spark multimode microplate reader (Tecan Trading AG). The MIC values for the tested compounds were determined in three independent experiments and presented in μM with standard errors and also in μg/mL. Amikacin (P. aeruginosa), linezolid (S. aureus), and ciprofloxacin (all other strains) served as positive controls. The MIC and EC50 values were determined by curve fitting with Sigma Plot. To determine the effect of the culture medium on the activity of silver compounds, the assay was performed using MHB, TSY, or DMEM (Gibco). To observe the effect of individual components of TSY medium, antibacterial tests were performed using MHB with addition of tryptone (17 g/L) or yeast extract (3 g/L, both were purchased from Sigma).

[2] = tested on: E. coli (DSM1116, ATCC 9637); experiment: microbe, parasite or virus in culture; type: cell-based, Escherichia coli
Experimental: as §1, §2

[3] = tested on: K. pneumoniae (DSM 11678, ATCC33495); experiment: Broth microdilution antibacterial assay; type: cell-based, Klebsiella pneumoniae
Experimental: as §1, §2

[4] = tested on: P. aeruginosa PA7 (DSM 24068); experiment: microbe, parasite or virus in culture; type: cell-based, Pseudomonas aeruginosa; conditions: for MIC: DSM24068, 22 h
Experimental: as §1, §2

[5] = tested on: E. faecium (DSM 20477, ATCC 19434); experiment: Broth microdilution antibacterial assay; type: cell-based, Enterococcus faecium
Experimental: as §1, §2

[6] = Conductometry: molar conductivity of silver complexes in DMSO; type: physicochemical; conditions: 1.0 mM in DMSO, calculated as monocarbene (NHC)AgX
Experimental: Since both the neutral monocarbene and the ionic biscarbene form of the complexes may exist in various proportions in the solution, conductometry studies were performed to reveal the dominant structure. The molar conductivity of 1.0 mM solutions of each complex in DMSO was determined after different periods up to 24 h using AgNO3 as 1:1 electrolyte reference (see Table 1). According to the literature, the expected range of molar conductivity for 1:1 electrolytes in DMSO is 35–90 S cm^2 mol^–1.[45],[46]
Conductivity measurements were performed using an Apera Instruments EC9500 conductivity meter. Solutions (as indicated, otherwise 1.0 mM) of all compounds were prepared using freshly distilled DMSO with a specific electrical conductivity of ≤3 × 10^–8 S cm^–1. The conductivities were measured at 25 ± 2 °C immediately after complete dissolution and after 24 h.

[7] = tested on: A. baumannii (DSM 30007, ATCC 19606); experiment: Broth microdilution antibacterial assay; type: cell-based, Acinetobacter baumannii
Experimental: as §1, §2

[8] = mean ± standard error, n = 3, TSY, 22 h
[9] = mean ± standard error, n = 3, MHB
[10] = mean ± standard error, n = 3, MHB, 22 h
[11] = Staphylococcus aureus, 22 h, read-out: MIC MRSA (value in brackets)
[12] = read-out: EC50 MRSA; mean ± standard error, n = 3, TSY
[13] = Escherichia coli, n = 3, MHB, 22 h, read-out: MIC E. coli (value in brackets)
[14] = mean ± standard error, n = 3, MHB, 22 h, read-out: MIC E. coli
[15] = Klebsiella pneumoniae, 22 h, read-out: MIC K. pneumoniae (value in brackets)
[16] = read-out: EC50 K. pneumoniae; mean ± standard error, n = 3, MHB
[17] = Pseudomonas aeruginosa, read-out: MIC P. aeruginosa (value in brackets), n = 3, MHB, 22 h
[18] = read-out: EC50 P. aeruginosa, mean ± standard error, n = 3, MHB
[19] = Enterococcus faecium, 22 h, read-out: MIC E. faecium, mean ± standard error, n = 3, TSY, 22 h
[20] = read-out: EC50 E. faecium, mean ± standard error, n = 3, TSY
[21] = Acinetobacter baumannii, 22 h, read-out: MIC A. baumannii (value in brackets)
[22] = read-out: EC50 A. baumannii; mean ± standard error, n = 3, MHB
[23] = Enterococcus faecium, 22 h, read-out: MIC E. faecium (value in brackets)
[24] = Klebsiella pneumoniae, 22 h, read-out: MIC K. pneumoniae
[25] = Acinetobacter baumannii, 22 h, read-out: MIC A. baumannii

Row | SMILES | MIC MRSA [1, 8] [µM] | EC50 [2, 9] [µM] | MIC K. pneumoniae [3, 10] [µM] | MIC P. aeruginosa [4, 10] [µM] | MIC E. faecium [5, 8] [µM] | MIC A. baumannii [7, 10] [µM] | MIC [1, 11] [µg/mL] | EC50 [1, 12] [µM] | MIC [2, 13] [µg/mL] | MIC [2, 14] [µM] | MIC [3, 15] [µg/mL] | EC50 [3, 16] [µM] | MIC [4, 17] [µg/mL] | EC50 [4, 18] [µM] | MIC [5, 19] [µM] | EC50 [5, 20] [µM] | MIC [7, 21] [µg/mL] | EC50 [7, 22] [µM] | MIC [5, 23] [µg/mL] | MIC [3, 24] [µM] | also measured
1 | [Cl][Ag][c]1n(Cc2ccccn2)c2ccccc2[n+]1Cc1ccccn1 [6a] | 144 ± 0.0 | 38.1 ± 6.9 | 9.02 ± 0.0 | 60.1 ± 12.0 | 144 ± 0.0 | 9.0 ± 0.0 | – | – | – | – | – | – | – | – | – | – | – | – | – | – | EC50 ([1]; mean ± standard error, n = 3, TSY; read-out: EC50 MRSA): 91.3 ± 0.6 µM; MIC MRSA (value in brackets) ([1]; n = 3, TSY, 22 h): 64 µg/mL; MIC E. coli [2, 10]: 48.1 ± 12.0 µM; MIC E. coli (value in brackets) ([2]; n = 3, MHB, 22 h): 21 µg/mL; EC50 ([3]; mean ± standard error, n = 3, MHB; read-out: EC50 K. pneumoniae): 5.9 ± 0.2 µM; MIC K. pneumoniae (value in brackets) ([3]; n = 3, MHB, 22 h): 4 µg/mL; EC50 ([4]; mean ± standard error, n = 3, MHB, read-out: EC50 P. aeruginosa): 33.6 ± 5.8 µM; MIC P. aeruginosa (value in brackets) ([4]; n = 3, MHB, 22 h): 27 µg/mL; EC50 ([5]; mean ± standard error, n = 3, TSY, read-out: EC50 E. faecium): 133 ± 0.6 µM; MIC E. faecium (value in brackets) ([5]; n = 3, TSY, 22 h): 64 µg/mL; Molar conductivity ΛM ([6]; 1 h after dissolution): 3.75 S cm^2 mol^–^1; Molar conductivity ΛM ([6]; 24 h after dissolution): 4.15 S cm^2 mol^–^1; EC50 ([7]; mean ± standard error, n = 3, MHB; read-out: EC50 A. baumannii): 1.6 ± 0.1 µM; MIC A. baumannii (value in brackets) ([7]; n = 3, MHB, 22 h): 4 µg/mL
2 | CC(C)[n+]1cn(Cc2ccccn2)c2ccccc21.[Br-] [L3b, 1-Isopropyl-3-(pyridin-2-ylmethyl)-benzimidazolium Bromide] | > 250 | > 250 | > 250 | > 250 | – | > 250 | > 128 | > 250 | > 128 | > 250 | > 128 | > 250 | > 128 | > 250 | ≥ 250 | ≥ 250 | ≥ 128 | > 250 | – | – | –
3 | NCC[C@H](O)C(=O)N[C@@H]1C[C@H](N)[C@@H](O[C@H]2O[C@H](CN)[C@@H](O)[C@H](O)[C@H]2O)[C@H](O)[C@H]1O[C@H]1O[C@H](CO)[C@@H](O)[C@H](N)[C@H]1O [amikacin, reference compound] | – | – | – | – | – | – | – | – | – | – | – | – | – | – | – | – | – | – | – | – | MIC ([4]; Pseudomonas aeruginosa, read-out: MIC P. aeruginosa): 4.4 ± 1.3 µM; MIC ([4]; Pseudomonas aeruginosa, read-out: MIC P. aeruginosa (value in brackets)): 2.6 µg/mL
4 | CC(C)[n+]1cn(Cc2ccccn2)c2ccccc21.[I-] [L3c, 1-Isopropyl-3-(pyridin-2-ylmethyl)-benzimidazolium Iodide] | > 250 | > 250 | > 250 | ≥ 250 | > 250 | > 250 | > 128 | > 250 | > 128 | > 250 | > 128 | > 250 | > 128 | ≥ 250 | – | > 250 | > 128 | > 250 | > 128 | – | –
5 | CC(C)[n+]1cn(Cc2ccccn2)c2ccccc21.[Cl-] [L3a, 1-Isopropyl-3-(pyridin-2-ylmethyl)-benzimidazolium Chloride] | – | – | – | – | – | – | > 128 | – | > 128 | – | > 128 | – | > 128 | – | – | – | > 128 | – | > 128 | > 250 | MIC ([1]; Staphylococcus aureus, 22 h, read-out: MIC MRSA): > 250 µM; EC50 ([1]; Staphylococcus aureus, read-out: EC50 MRSA): > 250 µM; EC50 ([2]; Escherichia coli, mean ± standard error, n = 3, MHB): > 250 µM; MIC ([2]; Escherichia coli, mean ± standard error, n = 3, MHB, 22 h, read-out: MIC E. coli): > 250 µM; EC50 ([3]; Klebsiella pneumoniae, read-out: EC50 K. pneumoniae): > 250 µM; MIC ([4]; Pseudomonas aeruginosa, read-out: MIC P. aeruginosa, mean ± standard error, n = 3, MHB, 22 h): > 250 µM; EC50 ([4]; Pseudomonas aeruginosa, DSM24068, read-out: EC50 P. aeruginosa, mean ± standard error, n = 3, MHB): > 250 µM; MIC ([5]; Enterococcus faecium, 22 h, read-out: MIC E. faecium): > 250 µM; EC50 ([5]; Enterococcus faecium, read-out: EC50 E. faecium, mean ± standard error, n = 3, TSY): > 250 µM; MIC [7, 25]: > 250 µM; EC50 ([7]; Acinetobacter baumannii, read-out: EC50 A. baumannii): > 250 µM
6 | O=C(O)c1cn(C2CC2)c2cc(N3CCNCC3)c(F)cc2c1=O [ciprofloxacin, reference compound] | – | – | – | – | – | – | – | – | – | – | 0.8 | – | – | – | 15.1 ± 1 | – | 0.2 | – | – | 2.5 ± 0.9 | MIC ([2]; Escherichia coli, 22 h, read-out: MIC E. coli): 0.5 µM; MIC ([2]; Escherichia coli, 22 h, read-out: MIC E. coli (value in brackets)): 0.16 µg/mL; MIC ([2]; Escherichia coli, read-out: MIC E. coli DSM 1116 in MHB): 0.47 µM; MIC ([2]; Escherichia coli, read-out: MIC E. coli DSM 1116 in MHB + tryptone): 0.47 µM; MIC ([2]; Escherichia coli, read-out: MIC E. coli DSM 1116 in MHB + yeast extract): 0.47 µM; MIC ([5]; Enterococcus faecium, 22 h, read-out: MIC E. faecium (value in brackets), n = 3, TSY, 22 h): 5 µg/mL; MIC [7, 25]: 0.63 ± 0.22 µM
